The source of these data is patent US7598245B2 (Vertex Pharmaceuticals Incorporated, priority 2003, dated 2009).

The structures appear in SMILES notation. Some results are limits rather than exact numbers.

Format in all cases: biochemical
One assay deals with T1, c-KIT (Homo sapiens, UniProt P10721).
T1 construct: 0.02% BSA and 25 nM c-KIT
Description: Inhibition of c-KIT, radiometric filter-binding assay. Conditions: 700 μM ATP, pE4Y substrate. As for the experimental part: Compounds are screened for their ability to inhibit c-KIT activity using a radiometric filter-binding assay. This assay monitors the ^33P incorporation into a substrate poly(Glu, Tyr) 4:1 (pE4Y). Reactions are carried out in a solution containing 100 mM HEPES (pH 7.5), 10 mM MgCl2, 25 mM NaCl, 1 mM DTT, 0.01% BSA and 2.5% DMSO. Final substrate concentrations in the assay were 700 μM ATP and 0.5 mg/mL pE4Y (both from Sigma Chemicals, St Louis, Mo.). The final concentration of compounds is generally between 0.01 and 5 μM. Typically, a 12-point titration is conducted by preparing serial dilutions from 10 mM DMSO stock of test compound. Reactions were carried out at room temperature.
Two assay solutions are prepared. Solution 1 contains 100 mM HEPES (pH 7.5), 10 mM MgCl2, 25 mM NaCl, 1 mg/ml pE4Y and 1.4 mM ATP (containing 0.5 μCi of [γ-^33P]ATP for each reaction). Solution 2 contains 100 mM HEPES (pH 7.5), 10 mM MgCl2, 25 mM NaCl, 2 mM DTT, 0.02% BSA and 25 nM c-KIT. The assay is run on a 96 well plate by mixing 33 μL of Solution1 and 1.65 μL of the test compounds. The reaction is initiated with 33 μL of Solution2. After incubation for 20 minutes at room temperature, the reaction was stopped with 50 μL of 10% TCA containing 0.2 mM of ATP. All of the reaction volume is then transferred to a filter plate and washed with 5% TCA by a Harvester9600 from TOMTEC (Hamden, Conn.). The amount of ^33P incorporation into pE4y is analyzed by a Packard TopCount Microplate Scintillation Counter (Meriden, Conn.). The data is fitted using Prism software to get an IC50 or Ki.

The target of another assay is T2, human Src kinase (Homo sapiens, UniProt P12931).
T2 construct: 25 nM of recombinant human Src kinase
In words: Src inhibition assay B: spectrophotometric (uv-vis) coupled enzyme assay. Conditions: 100 μM ATP. Here is the method: The compounds are evaluated as inhibitors of human Src kinase using either a radioactivity-based assay or spectrophotometric assay.
Src Inhibition Assay B: Spectrophotometric Assay
The ADP produced from ATP by the human recombinant Src kinase-catalyzed phosphorylation of poly Glu-Tyr substrate is quantified using a coupled enzyme assay [Fox et al. Protein Sci. 1998, 7, 2249]. In this assay one molecule of NADH is oxidised to NAD for every molecule of ADP produced in the kinase reaction. The disappearance of NADH is conveniently followed at 340 nm.
The following are the final concentrations of the assay components: 0.025 M HEPES (pH 7.6), 10 mM MgCl2, 2 mM DTT, 0.25 mg/ml poly Glu-Tyr, and 25 nM of recombinant human Src kinase. Final concentrations of the components of the coupled enzyme system are 2.5 mM phosphoenolpyruvate, 200 μM NADH, 30 μg/ml pyruvate kinase and 10 μg/ml lactate dehydrogenase.
In a typical assay, all the reaction components with the exception of ATP are pre-mixed and aliquoted into assay plate wells. Inhibitors dissolved in DMSO are added to the wells to give a final DMSO concentration of 2.5%. The assay plate is incubated at 30° C. for 10 min before initiating the reaction with 100 μM ATP. The absorbance change at 340 nm with time, the rate of the reaction, is monitored on a molecular devices plate reader. The data of rate as a function of the inhibitor concentration is fitted to competitive inhibition kinetics model to get the Ki for the compound.

Another assay addresses T3, Aurora-2 (Homo sapiens, UniProt O14965).
T3 construct: addition of 10 μL of Aurora-2 stock solution to give a final concentration of 70 nM
T3 sequence (O14965 1-403): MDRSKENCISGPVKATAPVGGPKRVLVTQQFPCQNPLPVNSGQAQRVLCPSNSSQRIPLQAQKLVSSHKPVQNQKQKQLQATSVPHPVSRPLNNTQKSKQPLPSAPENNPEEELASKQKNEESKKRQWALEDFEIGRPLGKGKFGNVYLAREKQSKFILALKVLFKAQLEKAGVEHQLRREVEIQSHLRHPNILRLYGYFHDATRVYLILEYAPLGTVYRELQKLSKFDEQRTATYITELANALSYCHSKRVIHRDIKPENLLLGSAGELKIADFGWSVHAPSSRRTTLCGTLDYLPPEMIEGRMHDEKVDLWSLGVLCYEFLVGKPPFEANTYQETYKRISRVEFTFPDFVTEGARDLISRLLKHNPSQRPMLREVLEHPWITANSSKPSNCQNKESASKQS
In words: Inhibition of AUR-2, coupled enzyme assay. As for the experimental part:
Compounds are screened in the following manner for their ability to inhibit Aurora-2 using a standard coupled enzyme assay (Fox et al (1998) Protein Sci 7, 2249). To an assay stock buffer solution containing 0.1M HEPES 7.5, 10 mM MgCl2, 1 mM DTT, 25 mM NaCl, 2.5 mM phosphoenolpyruvate, […], 30 mg/ml pyruvate kinase, 10 mg/ml lactate dehydrogenase, 40 mM ATP, and 800 μM peptide (LRRASLG, American Peptide, Sunnyvale, Calif.) is added a DMSO solution of a compound of the present invention to a final concentration of 30 μM. The resulting mixture is incubated at 30° C. for 10 min. The reaction was initiated by the addition of 10 μL of Aurora-2 stock solution to give a final concentration of 70 nM in the assay. The rates of reaction are obtained by monitoring absorbance at 340 nm over a 5 minute read time at 30° C. using a BioRad Ultramark plate reader (Hercules, Calif.). The Ki values are determined from the rate data as a function of inhibitor concentration.

T1 sequence (P10721 26-976): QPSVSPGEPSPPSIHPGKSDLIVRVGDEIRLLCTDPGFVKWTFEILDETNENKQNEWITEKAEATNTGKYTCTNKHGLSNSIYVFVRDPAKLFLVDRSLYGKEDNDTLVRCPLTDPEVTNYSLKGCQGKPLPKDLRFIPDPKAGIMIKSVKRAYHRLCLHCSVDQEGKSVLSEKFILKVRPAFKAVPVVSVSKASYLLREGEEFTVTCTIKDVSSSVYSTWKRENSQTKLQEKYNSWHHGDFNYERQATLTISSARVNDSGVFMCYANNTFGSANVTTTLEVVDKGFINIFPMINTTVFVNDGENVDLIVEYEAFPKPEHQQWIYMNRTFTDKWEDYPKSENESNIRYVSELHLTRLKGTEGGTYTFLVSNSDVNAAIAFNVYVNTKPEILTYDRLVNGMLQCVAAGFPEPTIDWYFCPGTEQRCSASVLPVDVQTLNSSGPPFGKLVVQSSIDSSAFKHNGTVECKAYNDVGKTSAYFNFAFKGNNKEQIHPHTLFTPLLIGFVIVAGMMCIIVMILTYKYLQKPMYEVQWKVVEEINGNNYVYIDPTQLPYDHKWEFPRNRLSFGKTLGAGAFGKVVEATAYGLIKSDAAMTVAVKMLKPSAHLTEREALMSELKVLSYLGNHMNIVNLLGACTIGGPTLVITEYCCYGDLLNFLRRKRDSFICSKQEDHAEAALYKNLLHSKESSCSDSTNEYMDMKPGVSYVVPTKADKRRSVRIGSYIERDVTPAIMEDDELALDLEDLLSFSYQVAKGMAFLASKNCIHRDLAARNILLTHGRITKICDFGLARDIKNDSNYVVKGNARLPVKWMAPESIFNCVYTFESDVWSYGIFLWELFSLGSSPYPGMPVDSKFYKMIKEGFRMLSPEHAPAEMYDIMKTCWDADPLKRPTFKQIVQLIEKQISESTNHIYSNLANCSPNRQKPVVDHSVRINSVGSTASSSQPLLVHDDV
T2 sequence (P12931 whole entry): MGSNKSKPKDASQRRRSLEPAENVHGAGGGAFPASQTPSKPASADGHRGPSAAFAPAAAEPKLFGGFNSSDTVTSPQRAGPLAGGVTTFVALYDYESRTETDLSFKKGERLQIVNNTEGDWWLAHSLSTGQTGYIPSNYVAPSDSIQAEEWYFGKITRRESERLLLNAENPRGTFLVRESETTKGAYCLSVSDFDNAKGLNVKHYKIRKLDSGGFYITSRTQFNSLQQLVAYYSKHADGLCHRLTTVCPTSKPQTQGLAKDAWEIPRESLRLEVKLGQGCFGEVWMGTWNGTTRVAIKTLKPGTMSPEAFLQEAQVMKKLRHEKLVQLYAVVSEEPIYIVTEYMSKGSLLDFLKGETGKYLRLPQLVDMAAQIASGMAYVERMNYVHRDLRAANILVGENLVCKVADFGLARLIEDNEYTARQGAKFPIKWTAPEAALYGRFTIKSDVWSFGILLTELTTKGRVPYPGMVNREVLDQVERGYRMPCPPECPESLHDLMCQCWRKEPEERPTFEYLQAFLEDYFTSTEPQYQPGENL

`N#CCC(=O)N1CCCN(c2cc(-n3cnc(Nc4ccccc4)n3)ccn2)CC1` [Compound I-72]: the Ki at c-KIT lay in the range of 50 to 500 nM; at human Src kinase it was 500 to 1000 nM; at Aurora-2, 100 to 1000 nM.
Regarding `COc1cc(Nc2ncn(-c3ccc(C#N)cc3)n2)cc(OC)c1OC` [Compound I-43], the values for the inhibitory constant (Ki) on human Src kinase and at Aurora-2 were less than 500 nM and 100 to 1000 nM, respectively.
For the molecule `CCOc1cccc(Nc2ncn(-c3ccccc3)n2)c1` [Compound I-45], the inhibition constant (Ki) is less than 50 nM at c-KIT, less than 500 nM at human Src kinase and greater than 1000 nM on Aurora-2.
Taken in the same sequence, the figures for `COC(=O)Nc1ccc(Nc2ncn(-c3ccnc(N4C[C@@H](C)N(C(C)=O)[C@@H](C)C4)c3)n2)cc1` [Compound I-78] were 50 to 500 nM, less than 500 nM and less than 100 nM.
As to `OC[C@H]1CCCN(c2cc(-n3cnc(Nc4ccccc4)n3)ccn2)C1` [Compound I-65], the Ki was less than 500 nM on human Src kinase and 100 to 1000 nM on Aurora-2.
`CC(=O)N1[C@H](C)CN(c2cc(-n3cnc(Nc4ccc(NC(=O)N(C)C)cc4)n3)ccn2)C[C@@H]1C` [Compound I-77, 3-(4-{1-[2-(4-Acetyl-3,5-dimethyl-piperazin-1-yl)-pyridin-4-yl]-1H-[1,2,4]triazol-3-ylamino}-phenyl)-1,1-dimethyl-urea]: the inhibition constant (Ki) is 50 to 500 nM at c-KIT, 500 to 1000 nM on human Src kinase and less than 100 nM at Aurora-2.
Taken in the same sequence, the figures for `c1ccc(Nc2ncn(-c3ccnc(N4CCCCCC4)c3)n2)cc1` [Compound I-73] were 50 to 500 nM, less than 500 nM and less than 100 nM.
As for `CC(=O)N1[C@H](C)CN(c2cc(-n3cnc(Nc4ccc(NC(=O)C(F)(F)F)cc4)n3)ccn2)C[C@@H]1C` [Compound I-79], the results for the inhibition constant Ki at c-KIT, on human Src kinase and on Aurora-2 were 50 to 500 nM, less than 500 nM and less than 100 nM, respectively.
Turning to `COc1cc(Nc2ncn(-c3ccccc3)n2)cc(OC)c1OC` [Compound I-42], the inhibition constant (Ki) is less than 500 nM at human Src kinase and 100 to 1000 nM at Aurora-2.
In the case of `CC(=O)N1[C@H](C)CN(c2cc(-n3cnc(Nc4ccc(N5CCOCC5)cc4)n3)ccn2)C[C@@H]1C` [Compound I-85, 1-(2,6-Dimethyl-4-{4-[3-(4-morpholin-4-yl-phenylamino)-[1,2,4]triazol-1-yl]-pyridin-2-yl}-piperazin-1-yl)-ethanone], the Ki at c-KIT was 50 to 500 nM; on human Src kinase it was 500 to 1000 nM; at Aurora-2, less than 100 nM.
For `CC(C)Oc1cccc(Nc2ncn(-c3ccccc3)n2)c1` [Compound I-46], in that order: less than 50 nM, greater than 1000 nM and greater than 1000 nM.
Regarding `COCC(=O)N1CCCN(c2cc(-n3cnc(Nc4ccccc4)n3)ccn2)CC1` [Compound I-71], the Ki at human Src kinase was greater than 1000 nM; at Aurora-2, 100 to 1000 nM.
For the molecule `CC(=O)N1[C@H](C)CN(c2cc(-n3cnc(Nc4ccc(NC(=O)OC(C)C)cc4)n3)ccn2)C[C@@H]1C` [Compound I-89], the inhibition constant Ki on c-KIT was 50 to 500 nM; on human Src kinase, 500 to 1000 nM; at Aurora-2 it was less than 100 nM.
Taken in the same sequence, the figures for `CC(=O)N1CCCN(c2cc(-n3cnc(Nc4ccccc4)n3)ccn2)CC1` [Compound I-66] were 50 to 500 nM, greater than 1000 nM and 100 to 1000 nM.
For `CCCOC(=O)Nc1ccc(Nc2ncn(-c3ccnc(N4C[C@@H](C)N(C(C)=O)[C@@H](C)C4)c3)n2)cc1` [Compound I-88], in that order: 50 to 500 nM, less than 500 nM and less than 100 nM.
For `c1ccc(-n2cnc(Nc3ccnc(N4CCOCC4)c3)n2)cc1` [Compound I-105], in that order: less than 50 nM, less than 500 nM and 100 to 1000 nM.
In the case of `CC(=O)N1[C@H](C)CN(c2cc(-n3cnc(Nc4ccc(N)cc4)n3)ccn2)C[C@@H]1C` [Compound I-82], the Ki was 50 to 500 nM on c-KIT, less than 500 nM on human Src kinase and less than 100 nM at Aurora-2.
On to `CCOC(=O)c1ccc(Nc2ncn(-c3ccnc(N4C[C@@H](C)N(C(C)=O)[C@@H](C)C4)c3)n2)cc1` [Compound I-75], for which the figures for the Ki at c-KIT, on human Src kinase and on Aurora-2 were less than 50 nM, less than 500 nM and less than 100 nM, respectively.
For the molecule `CCC(=O)N1CCCN(c2cc(-n3cnc(Nc4ccccc4)n3)ccn2)CC1` [Compound I-67], the inhibition constant (Ki) on human Src kinase is greater than 1000 nM; at Aurora-2, 100 to 1000 nM.
As for `CC(=O)N1[C@H](C)CN(c2cc(-n3cnc(Nc4ccccc4)n3)ccn2)C[C@@H]1C` [Compound I-74], the values for the Ki at c-KIT, at human Src kinase and on Aurora-2 were 50 to 500 nM, less than 500 nM and less than 100 nM, respectively.
